Values quoted from earlier work as cited in US8067364B2, “Deer antler extract for promoting angiogenesis” (Velvet Antler Research New Zealand Limited (VARNZ), priority 2003, dated 2011).
No end group written: not given here.

What was measured:
[1] = tested on: endothelial cells, wounds; settings: literature
wounds = settings: delivered by gene therapy, local sustained delivery; literature

Row | Substance | endothelial cell migration, angiogenesis, and wound healing [1] | angiogenesis and wound healing (wounds)
1 | Thymosin α1: peptide of the Thymosin family, potential wound healing agent (Ac-SDAAVDTSSEITTKDLKEKKEVVEEAEN; ends and bridges not checked; UniProt P06454 2-29, looked up) | stimulates endothelial cell migration, angiogenesis, and wound healing | –
2 | VEGF | – | cause angiogenesis and enhanced wound healing
